Laboratory results as given in paper PMC5821110 (Cancer immunology research, 2017).

How the values were obtained:
[1] = system: HLA-A2; assay: Peptide binding affinity: stabilization of HLA-A2 on TAP-deficient T2 cells; conditions: stabilization (normalized mean fluorescence intensity) of HLA-A2 on TAP-deficient T2 cells by test peptide relative to a non-binding peptide; six hours incubation; flow cytometry
[2] = system: E.G7-OVA PD-L1^high tumors; assay: Tumor treatment study: peptide immunization after OT-1 adoptive transfer; type: in vivo, C57BL/6 mice; conditions: tumors removed on day 40, flow cytometry; 100 µg peptide in CFA

Row | Sequence | Observed relative binding [1] | Number of CD8 TILs (percent of CD45^+ cells) compared to high-affinity vaccination [2]
1 | RLQGISPKA [IA] | 3.79 | –
2 | RIQGISPKI [LI] | 2.34 | –
3 | FLQGISPKA [RF-IA] | 4.78 | –
4 | RLQGISPKI [Nat] | 3.61 | –
5 | FLQGISPKV [RF-IV] | 4.25 | –
6 | SIINTEKL [FT] | – | significantly increased
7 | RAQGISPKI [LA] | 1.31 | –
8 | FLQGISPKI [RF] | 4.97 | –
9 | RLQGISPKP [IP] | 1.07 | –
10 | RLQGISPKV [IV] | 3.88 | –
11 | RLQGISPKL [IL] | 3.89 | –
